Key:
Assay type in all cases: in vivo
[1] = system: oat, wild (wild oat, Avena fatua); assay: Test C postemergence, wild oat; settings: visual injury, 0 to 100 scale (0 no effect, 100 complete control)
Text: (§1) Seeds of plant species selected from blackgrass (Alopecurus myosuroides), corn (Zea mays), foxtail, giant (giant foxtail, Setaria faberi), goosegrass (Eleusine indica), kochia (Bassia scoparia), oat, wild (wild oat, Avena fatua), pigweed, palmer (palmer amaranth, Amaranthus palmeri), ragweed (common ragweed, Ambrosia artemisiifolia), ryegrass, Italian (Italian ryegrass, Lolium multiflorum), soybean (Glycine max) and wheat (Triticum aestivum) were planted into a blend of loam soil and sand and treated preemergence with a directed soil spray using test chemicals formulated in a non-phytotoxic solvent mixture which included a surfactant.
(§2) At the same time, plants selected from these crop and weed species and also galium (catchweed bedstraw, Galium aparine) and horseweed (Erigeron canadensis) were planted in pots containing the same blend of loam soil and sand and treated with postemergence applications of test chemicals formulated in the same manner. Plants ranged in height from 2 to 10 cm and were in the one- to two-leaf stage for the postemergence treatment. Treated plants and untreated controls were maintained in a greenhouse for 10 or 12 days, after which time all treated plants were compared to untreated controls and visually evaluated for injury. Plant response ratings, summarized in Table A, are based on a 0 to 100 scale where 0 is no effect and 100 is complete control. A dash (-) response means no test result.

[2] = system: wheat (Triticum aestivum); assay: Test C preemergence, wheat; settings: 0 is no effect, 100 is complete control
Text: as §1, §2

[3] = system: pigweed, palmer (palmer amaranth, Amaranthus palmeri); assay: Test C preemergence, palmer amaranth; settings: 0 is no effect, 100 is complete control
Text: as §1, §2

[4] = system: barnyardgrass (Echinochloa crusgalli); assay: Test D flooded paddy test, barnyardgrass; design: key: 0 = no effect, 100 = complete control; settings: 250 g ai/ha, Flood; applied to paddy water at 2-leaf stage; visual rating after 13 days; scale 0 (no effect) to 100 (complete control)
Procedure: (§3) Plant species in the flooded paddy test selected from barnyardgrass (Echinochloa crusgalli), ducksalad (Heteranthera limosa), rice (Oryza sativa), and sedge, umbrella (small-flower umbrella sedge, Cyperus difformis) were grown to the 2-leaf stage for testing. At time of treatment, test pots were flooded to 3 cm above the soil surface, treated by application of test compounds directly to the paddy water, and then maintained at that water depth for the duration of the test. Treated plants and controls were maintained in a greenhouse for 13 days, after which time all species were compared to controls and visually evaluated. Plant response ratings, summarized in Table B, are based on a scale of 0 to 100 where 0 is no effect and 100 is complete control. A dash (-) response means no test result.

[5] = system: oat, wild (wild oat, Avena fatua); assay: Test C preemergence, wild oat; settings: 0 is no effect, 100 is complete control
Text: as §1, §2

[6] = system: ragweed (common ragweed, Ambrosia artemisiifolia); assay: Test C postemergence, ragweed; settings: visual injury, 0 to 100 scale (0 no effect, 100 complete control)
Text: as §1, §2

kochia (Bassia scoparia) [7] = assay: Test C postemergence, kochia; settings: visual injury, 0 to 100 scale (0 no effect, 100 complete control)
Text: as §1, §2

[8] = system: goosegrass (Eleusine indica); assay: Test C preemergence, goosegrass; settings: 0 is no effect, 100 is complete control
Text: as §1, §2

rice (Oryza sativa) = assay: Test D flooded paddy test, rice; design: key: 0 = no effect, 100 = complete control; settings: 250 g ai/ha, Flood; applied to paddy water at 2-leaf stage; visual rating after 13 days; scale 0 (no effect) to 100 (complete control)
Procedure: as §3

[9] = system: galium (catchweed bedstraw, Galium aparine); assay: Test C postemergence, galium; settings: visual injury, 0 to 100 scale (0 no effect, 100 complete control)
Text: as §1, §2

kochia (Bassia scoparia) [10] = assay: Test C preemergence, kochia; settings: 0 is no effect, 100 is complete control
Text: as §1, §2

soybean (Glycine max) [11] = assay: Test C postemergence, soybean; settings: visual injury, 0 to 100 scale (0 no effect, 100 complete control)
Text: as §1, §2

corn (Zea mays) [12] = assay: Test C preemergence, corn; settings: 0 is no effect, 100 is complete control
Text: as §1, §2

[13] = system: foxtail, giant (giant foxtail, Setaria faberi); assay: Test C postemergence, giant foxtail; settings: visual injury, 0 to 100 scale (0 no effect, 100 complete control)
Text: as §1, §2

[14] = system: ragweed (common ragweed, Ambrosia artemisiifolia); assay: Test C preemergence, ragweed; settings: 0 is no effect, 100 is complete control
Text: as §1, §2

corn (Zea mays) [15] = assay: Test C postemergence, corn; settings: visual injury, 0 to 100 scale (0 no effect, 100 complete control)
Text: as §1, §2

[16] = system: goosegrass (Eleusine indica); assay: Test C postemergence, goosegrass; settings: visual injury, 0 to 100 scale (0 no effect, 100 complete control)
Text: as §1, §2

[17] = system: wheat (Triticum aestivum); assay: Test C postemergence, wheat; settings: visual injury, 0 to 100 scale (0 no effect, 100 complete control)
Text: as §1, §2

[18] = system: pigweed, palmer (palmer amaranth, Amaranthus palmeri); assay: Test C postemergence, palmer amaranth; settings: visual injury, 0 to 100 scale (0 no effect, 100 complete control)
Text: as §1, §2

[19] = system: ducksalad (Heteranthera limosa); assay: Test D flooded paddy test, ducksalad; design: key: 0 = no effect, 100 = complete control; settings: 250 g ai/ha, Flood; applied to paddy water at 2-leaf stage; visual rating after 13 days; scale 0 (no effect) to 100 (complete control)
Procedure: as §3

[20] = system: sedge, umbrella (small-flower umbrella sedge, Cyperus difformis); assay: Test D flooded paddy test, umbrella sedge; design: key: 0 = no effect, 100 = complete control; settings: 250 g ai/ha, Flood; applied to paddy water at 2-leaf stage; visual rating after 13 days; scale 0 (no effect) to 100 (complete control)
Procedure: as §3

[21] = system: blackgrass (Alopecurus myosuroides); assay: Test C postemergence, blackgrass; settings: visual injury, 0 to 100 scale (0 no effect, 100 complete control)
Text: as §1, §2

soybean (Glycine max) [22] = assay: Test C preemergence, soybean; settings: 0 is no effect, 100 is complete control
Text: as §1, §2

[23] = system: ryegrass, Italian (Italian ryegrass, Lolium multiflorum); assay: Test C preemergence, Italian ryegrass; settings: 0 is no effect, 100 is complete control
Text: as §1, §2

[24] = system: ryegrass, Italian (Italian ryegrass, Lolium multiflorum); assay: Test C postemergence, Italian ryegrass; settings: visual injury, 0 to 100 scale (0 no effect, 100 complete control)
Text: as §1, §2

[25] = system: horseweed (Erigeron canadensis); assay: Test C postemergence, horseweed; settings: 125 g ai/ha Postemergence; visual injury, 0 to 100 scale (0 no effect, 100 complete control)
Text: as §1, §2

[26] = system: foxtail, giant (giant foxtail, Setaria faberi); assay: Test C preemergence, giant foxtail; settings: 0 is no effect, 100 is complete control
Text: as §1, §2

`Cc1c(N2CCC(OC3CC3)C2=O)cc(N(COC(=O)C(C)(C)C)S(=O)(=O)C(F)(F)F)c(C)c1C` (stereo not shown) [Compound 49] was tested, and the “Oat, Wild plant response rating” value ([1]; 31 g ai/ha Postemergence) was 30, the “Oat, Wild plant response rating” value ([1]; 125 g ai/ha Postemergence) was 70 and the “Plant response rating (0 to 100 scale), Wheat” value ([2]; 31 g ai/ha Preemergence) was 30. The “Plant response rating (0 to 100 scale), Wheat” value ([2]; 125 g ai/ha Preemergence) was 90, the “Plant response rating (0 to 100 scale), Pigweed, Palmer” value ([3]; 31 g ai/ha Preemergence) was 30 and the “Plant response rating (0 to 100 scale), Pigweed, Palmer” value ([3]; 125 g ai/ha Preemergence) was 100. For the same molecule, the “Plant response rating, Barnyardgrass” value [4] was 100, the “Plant response rating (0 to 100 scale), Oat, Wild” value ([5]; 31 g ai/ha Preemergence) was 60 and the “Plant response rating (0 to 100 scale), Oat, Wild” value ([5]; 125 g ai/ha Preemergence) was 90. For the same molecule, the “Ragweed plant response rating” value ([6]; 31 g ai/ha Postemergence) was 70, the “Ragweed plant response rating” value ([6]; 125 g ai/ha Postemergence) was 90 and the “Kochia plant response rating” value (kochia (Bassia scoparia) [7]; 31 g ai/ha Postemergence) was 40. For the same molecule, the “Kochia plant response rating” value (kochia (Bassia scoparia) [7]; 125 g ai/ha Postemergence) was 60, the “Plant response rating (0 to 100 scale), Goosegrass” value ([8]; 31 g ai/ha Preemergence) was 60 and the “Plant response rating (0 to 100 scale), Goosegrass” value ([8]; 125 g ai/ha Preemergence) was 90. The “Plant response rating, Rice” value (rice (Oryza sativa)) was 40, the “Galium plant response rating” value ([9]; 31 g ai/ha Postemergence) was 80 and the “Galium plant response rating” value ([9]; 125 g ai/ha Postemergence) was 90. For the same molecule, the “Plant response rating (0 to 100 scale), Kochia” value (kochia (Bassia scoparia) [10]; 31 g ai/ha Preemergence) was 30, the “Plant response rating (0 to 100 scale), Kochia” value (kochia (Bassia scoparia) [10]; 125 g ai/ha Preemergence) was 70 and the “Soybean plant response rating” value (soybean (Glycine max) [11]; 31 g ai/ha Postemergence) was 60. The “Soybean plant response rating” value (soybean (Glycine max) [11]; 125 g ai/ha Postemergence) was 80, the “Plant response rating (0 to 100 scale), Corn” value (corn (Zea mays) [12]; 31 g ai/ha Preemergence) was 0 and the “Plant response rating (0 to 100 scale), Corn” value (corn (Zea mays) [12]; 125 g ai/ha Preemergence) was 50. For the same molecule, the “Foxtail, Giant plant response rating” value ([13]; 31 g ai/ha Postemergence) was 60, the “Foxtail, Giant plant response rating” value ([13]; 125 g ai/ha Postemergence) was 90 and the “Plant response rating (0 to 100 scale), Ragweed” value ([14]; 31 g ai/ha Preemergence) was 100. For the same molecule, the “Plant response rating (0 to 100 scale), Ragweed” value ([14]; 125 g ai/ha Preemergence) was 100, the “Corn plant response rating” value (corn (Zea mays) [15]; 31 g ai/ha Postemergence) was 50 and the “Corn plant response rating” value (corn (Zea mays) [15]; 125 g ai/ha Postemergence) was 100. For the same molecule, the “Goosegrass plant response rating” value ([16]; 31 g ai/ha Postemergence) was 20, the “Goosegrass plant response rating” value ([16]; 125 g ai/ha Postemergence) was 80 and the “Wheat plant response rating” value ([17]; 31 g ai/ha Postemergence) was 70. The “Wheat plant response rating” value ([17]; 125 g ai/ha Postemergence) was 70, the “Pigweed, Palmer plant response rating” value ([18]; 31 g ai/ha Postemergence) was 10 and the “Pigweed, Palmer plant response rating” value ([18]; 125 g ai/ha Postemergence) was 50. For the same molecule, the “Plant response rating, Ducksalad” value [19] was 95, the “Plant response rating, Sedge, Umbrella” value [20] was 90 and the “Blackgrass plant response rating” value ([21]; 31 g ai/ha Postemergence) was 30. For the same molecule, the “Blackgrass plant response rating” value ([21]; 125 g ai/ha Postemergence) was 60, the “Plant response rating (0 to 100 scale), Soybean” value (soybean (Glycine max) [22]; 31 g ai/ha Preemergence) was 0 and the “Plant response rating (0 to 100 scale), Soybean” value (soybean (Glycine max) [22]; 125 g ai/ha Preemergence) was 40. The “Plant response rating (0 to 100 scale), Ryegrass, Italian” value ([23]; 31 g ai/ha Preemergence) was 40, the “Plant response rating (0 to 100 scale), Ryegrass, Italian” value ([23]; 125 g ai/ha Preemergence) was 100 and the “Ryegrass, Italian plant response rating” value ([24]; 31 g ai/ha Postemergence) was 50. For the same molecule, the “Ryegrass, Italian plant response rating” value ([24]; 125 g ai/ha Postemergence) was 90, the “Horseweed plant response rating” value [25] was 100 and the “Plant response rating (0 to 100 scale), Foxtail, Giant” value ([26]; 31 g ai/ha Preemergence) was 20. The “Plant response rating (0 to 100 scale), Foxtail, Giant” value ([26]; 125 g ai/ha Preemergence) was 90.

Source: patent US20240158348A1, “HERBICIDAL CYCLIC AMIDES N-SUBSTITUTED WITH A HALOALKYLSULFONYLANILIDE GROUP” (FMC Corporation, priority 2021, published 2024)
